{"source": "patent US20080139661A1", "about": "“Fragranted moistening fluids that destroy and/or inhibit the growth of biological organisms while minimizing a tacky build up” (Pitney Bowes Incorporated, priority 2006, published 2008)", "origin": "cited, not measured here", "details": "at 20° C., typical value", "data": [{"molecule": "O", "note": "[Water]", "values": [{"measurement": "surface tension", "value": "around 72 dynes/cm"}]}]}
